Literature values, collected in patent US8906914B2, “Ethylene diamine modulators of fatty acid hydrolase” (priority 2009, dated 2014).

How the values were obtained:
thermal nociception [1] = conditions: rats; WO 04/033652; cited from earlier work
FAAH = target: T1, FAAH (Homo sapiens, UniProt O00519); conditions: reported; cited from earlier work
T1 sequence (O00519 1-579): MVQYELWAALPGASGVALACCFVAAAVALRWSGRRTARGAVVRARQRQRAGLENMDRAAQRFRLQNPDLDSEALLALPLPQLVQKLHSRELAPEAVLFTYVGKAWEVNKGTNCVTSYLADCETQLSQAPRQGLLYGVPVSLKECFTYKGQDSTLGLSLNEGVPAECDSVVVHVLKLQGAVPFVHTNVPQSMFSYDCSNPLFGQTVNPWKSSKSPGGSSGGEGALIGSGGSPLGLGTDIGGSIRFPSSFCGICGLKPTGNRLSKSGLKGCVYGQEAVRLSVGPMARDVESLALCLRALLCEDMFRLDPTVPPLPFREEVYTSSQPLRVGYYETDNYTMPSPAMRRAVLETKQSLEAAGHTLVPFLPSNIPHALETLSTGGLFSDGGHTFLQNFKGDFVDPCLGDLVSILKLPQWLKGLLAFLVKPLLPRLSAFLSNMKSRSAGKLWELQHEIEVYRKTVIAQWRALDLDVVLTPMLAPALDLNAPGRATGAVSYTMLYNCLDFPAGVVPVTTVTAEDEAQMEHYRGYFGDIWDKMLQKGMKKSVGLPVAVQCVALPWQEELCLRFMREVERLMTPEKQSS

thermal nociception [2] = conditions: rat; cited from earlier work

O=C(CCCCCCc1ccccc1)c1ncc(-c2ccccn2)o1 [OL-135]
analgesic activity in tail emersion test (thermal nociception [1]): analgesic activity
inhibition of FAAH (FAAH): potent inhibitor
analgesic efficacy/activity in hot plate test (thermal nociception [2]): analgesic activity
